Assay results: paper PMC6263544, “Second-generation pterocarpanquinones: synthesis and antileishmanial activity” (The Journal of Venomous Animals and Toxins Including …, 2018)

Assays:
[1] = tested on: peritoneal macrophages of Swiss mice; set-up: method as in PMID 21531758; settings: murine macrophage; cited from earlier work
[2] = tested on: L. infantum promastigotes; set-up: method as in PMID 27067332; settings: read-out: L. infantum Promastigote IC50; cited from earlier work
[3] = tested on: intracellular amastigotes of L. braziliensis; set-up: method as in PMID 25340550; settings: read-out: L. braziliensis Amastigote IC50; cited from earlier work
[4] = tested on: intracellular amastigotes of L. amazonensis; assay: Antiamastigote test, L. amazonensis in mouse peritoneal macrophages; type: cell-based, Leishmania amazonensis; settings: CC50 in Macrophages/IC50 in intracellular amastigotes
Description: (§1) For the test against intracellular amastigotes of L. amazonensis and L. infantum, resident peritoneal macrophages (swiss mouse) were plated in RPMI (Sigma-Aldrich) at 2 × 10^6/mL (0.4 mL/well) in Lab-Tek eight-chamber slides (Nunc, Roskilde, Denmark) and incubated at 37 °C in 5% CO2 for 1 h. Stationary-phase L. amazonensis and L. infantum promastigotes were added at respective parasite/macrophage ratios of 3:1 and 5:1 for 4 h. After washing three times, pterocarpanquinones 2a-f at various concentrations were added for 72 h. Next, the slides were stained using an Instant Prov hematological dye system (Newprov, Curitiba, Brazil). The number of amastigotes was determined by counting at least 100 macrophages per sample.
(§2) The results were expressed as an infection index (% infected cells×number of amastigotes/total number of macrophages). The 50% inhibitory concentration (IC50) was determined by nonlinear regression analysis in the software GraphPad Prism 5.

[5] = tested on: L. braziliensis promastigotes; set-up: method as in PMID 25340550; settings: read-out: L. braziliensis Promastigote IC50; cited from earlier work
[6] = tested on: intracellular amastigotes of L. infantum; set-up: method as in PMID 27067332; settings: read-out: L. infantum Amastigote IC50; cited from earlier work
[7] = tested on: L. amazonensis promastigotes; set-up: method as in PMID 21531758; settings: read-out: L. amazonensis Promastigote IC50; cited from earlier work
[8] = tested on: intracellular amastigotes of L. braziliensis; assay: Antiamastigote test, L. braziliensis in golden hamster macrophages; type: cell-based; settings: CC50 in Macrophages/IC50 in intracellular amastigotes
Description: Macrophages of golden hamsters were used in assays against intracellular amastigotes of L. braziliensis due to the natural resistance of mice. Resident macrophages were obtained from the peritoneal cells of golden hamsters after a peritoneal injection of 10 mL of Dulbecco’s Modified Eagle’s medium (DMEM) (Sigma-Aldrich). The peritoneal macrophages were plated onto glass coverslips placed within the wells of a 24-well culture plate and incubated at 37 °C in 5% CO2 for 1 h. After removing the nonadherent cells, the monolayers were infected with stationary-phase L. braziliensis promastigotes at a 5:1 parasite/macrophage ratio for 4 h. The infected macrophages were washed and incubated with several pterocarpanquinone concentrations (0-25 μM) for 72 h. The monolayers were then stained with Giemsa, and at least 100 infected macrophages per sample were counted under optical microscopy.
as §2

[9] = tested on: intracellular amastigotes of L. amazonensis; set-up: method as in PMID 21531758; settings: read-out: L. amazonensis Amastigote IC50; cited from earlier work
[10] = tested on: intracellular amastigotes of L. infantum; assay: Antiamastigote test, L. infantum in mouse peritoneal macrophages; type: cell-based, Leishmania infantum; settings: CC50 in Macrophages/IC50 in intracellular amastigotes
Description: as §1, §2

In the case of O=C1C2=C(C(=O)c3ccccc31)[C@H]1Oc3ccccc3[C@H]1CO2 [LQB-118 (1)], the CC50 [1] is listed as 18.5 µM, the IC50 [2] is listed as 4.08 µM and the IC50 [3] is listed as 7.5 µM. For the same compound, the “L. amazonensis SI (Selective Index)” value [4] was 12.73, the IC50 [5] was 3.4 µM and the IC50 [6] was 3.25 µM. For the same compound, the IC50 [7] was 1.73 µM, the “L. braziliensis SI (Selective Index)” value [8] was 2.46 and the IC50 [9] was 1.45 µM. For the same compound, the “L. infantum SI (Selective Index)” value [10] was 5.68.
